From patent US8741934B2, “Inhibitors of ion channels” (Pfizer Limited, priority 2007, dated 2014) come the findings set out here.

This assay concerns the target T1, hSCN3A sodium channels (Homo sapiens, UniProt Q9NY46).
T1 construct: expressed in transfected cells
As to the kind of experiment: hSCN3A electrophysiology, Ionworks Quattro automated platform (Table C). Format: cell-based. The conditions noted are these: for inhibition at 3 µM: read-out: SCN3A % INHIB HTS IWQ 3 μM; for inhibition at 10 µM: read-out: SCN3A % INHIB HTS IWQ 10 μM; for SCN3A INHIB INACT DRC EP IWQ EMAX: Emax of dose-response curve, inactivated state. As for the experimental part: Human Embryonic Kidney (HEK) cells were transfected with an hSCN3A construct using lipofectamine reagent (Invitrogen), using standard techniques. […] Clones were screened for expression using the whole-cell voltage-clamp technique.
HEK cells stably transfected with hSCN3A were maintained in DMEM medium supplemented with 10% heat-inactivated fetal bovine serum and 400 μg/ml G418 sulfate in an incubator at 37° C. with a humidified atmosphere of 10% CO2. […] For electrophysiological studies, cells were removed from the culture flask by brief trypsinization and replated at low density onto glass cover slips. Cells were typically used for electrophysiological experiments within 24 to 72 h after plating.
Electrophysiological assays were also conducted using the Ionworks Quattro automated electrophysiological platform (Molecular Devices Corp) (Table C). Intracellular and extracellular solutions were as described above with the following changes, 100 μg/ml amphotericin was added to the intracellular solution to perforate the membrane and allow electrical access to the cells. hSCN3A cells were grown and harvested as for PatchXpress and cells were resuspended in extracellular solution at a concentration of 3-4×10^6 cells/ml. The onboard liquid handling facility of the Ionworks Quattro was used for dispensing cells and application of test compounds. A voltage protocol was then applied that comprised of a voltage step to fully inactivate the sodium channels, followed by a brief hyperpolarized recovery period to allow partial recovery from inactivation for unblocked sodium channels, followed by a test depolarized voltage step to assess magnitude of inhibition by test compound. Compound effect was determined based on current amplitude difference between the pre-compound addition and post-compound addition scans.
On the technique in general: In patch-clamp work, channel activity is measured electrically.

T1 sequence (Q9NY46 whole entry): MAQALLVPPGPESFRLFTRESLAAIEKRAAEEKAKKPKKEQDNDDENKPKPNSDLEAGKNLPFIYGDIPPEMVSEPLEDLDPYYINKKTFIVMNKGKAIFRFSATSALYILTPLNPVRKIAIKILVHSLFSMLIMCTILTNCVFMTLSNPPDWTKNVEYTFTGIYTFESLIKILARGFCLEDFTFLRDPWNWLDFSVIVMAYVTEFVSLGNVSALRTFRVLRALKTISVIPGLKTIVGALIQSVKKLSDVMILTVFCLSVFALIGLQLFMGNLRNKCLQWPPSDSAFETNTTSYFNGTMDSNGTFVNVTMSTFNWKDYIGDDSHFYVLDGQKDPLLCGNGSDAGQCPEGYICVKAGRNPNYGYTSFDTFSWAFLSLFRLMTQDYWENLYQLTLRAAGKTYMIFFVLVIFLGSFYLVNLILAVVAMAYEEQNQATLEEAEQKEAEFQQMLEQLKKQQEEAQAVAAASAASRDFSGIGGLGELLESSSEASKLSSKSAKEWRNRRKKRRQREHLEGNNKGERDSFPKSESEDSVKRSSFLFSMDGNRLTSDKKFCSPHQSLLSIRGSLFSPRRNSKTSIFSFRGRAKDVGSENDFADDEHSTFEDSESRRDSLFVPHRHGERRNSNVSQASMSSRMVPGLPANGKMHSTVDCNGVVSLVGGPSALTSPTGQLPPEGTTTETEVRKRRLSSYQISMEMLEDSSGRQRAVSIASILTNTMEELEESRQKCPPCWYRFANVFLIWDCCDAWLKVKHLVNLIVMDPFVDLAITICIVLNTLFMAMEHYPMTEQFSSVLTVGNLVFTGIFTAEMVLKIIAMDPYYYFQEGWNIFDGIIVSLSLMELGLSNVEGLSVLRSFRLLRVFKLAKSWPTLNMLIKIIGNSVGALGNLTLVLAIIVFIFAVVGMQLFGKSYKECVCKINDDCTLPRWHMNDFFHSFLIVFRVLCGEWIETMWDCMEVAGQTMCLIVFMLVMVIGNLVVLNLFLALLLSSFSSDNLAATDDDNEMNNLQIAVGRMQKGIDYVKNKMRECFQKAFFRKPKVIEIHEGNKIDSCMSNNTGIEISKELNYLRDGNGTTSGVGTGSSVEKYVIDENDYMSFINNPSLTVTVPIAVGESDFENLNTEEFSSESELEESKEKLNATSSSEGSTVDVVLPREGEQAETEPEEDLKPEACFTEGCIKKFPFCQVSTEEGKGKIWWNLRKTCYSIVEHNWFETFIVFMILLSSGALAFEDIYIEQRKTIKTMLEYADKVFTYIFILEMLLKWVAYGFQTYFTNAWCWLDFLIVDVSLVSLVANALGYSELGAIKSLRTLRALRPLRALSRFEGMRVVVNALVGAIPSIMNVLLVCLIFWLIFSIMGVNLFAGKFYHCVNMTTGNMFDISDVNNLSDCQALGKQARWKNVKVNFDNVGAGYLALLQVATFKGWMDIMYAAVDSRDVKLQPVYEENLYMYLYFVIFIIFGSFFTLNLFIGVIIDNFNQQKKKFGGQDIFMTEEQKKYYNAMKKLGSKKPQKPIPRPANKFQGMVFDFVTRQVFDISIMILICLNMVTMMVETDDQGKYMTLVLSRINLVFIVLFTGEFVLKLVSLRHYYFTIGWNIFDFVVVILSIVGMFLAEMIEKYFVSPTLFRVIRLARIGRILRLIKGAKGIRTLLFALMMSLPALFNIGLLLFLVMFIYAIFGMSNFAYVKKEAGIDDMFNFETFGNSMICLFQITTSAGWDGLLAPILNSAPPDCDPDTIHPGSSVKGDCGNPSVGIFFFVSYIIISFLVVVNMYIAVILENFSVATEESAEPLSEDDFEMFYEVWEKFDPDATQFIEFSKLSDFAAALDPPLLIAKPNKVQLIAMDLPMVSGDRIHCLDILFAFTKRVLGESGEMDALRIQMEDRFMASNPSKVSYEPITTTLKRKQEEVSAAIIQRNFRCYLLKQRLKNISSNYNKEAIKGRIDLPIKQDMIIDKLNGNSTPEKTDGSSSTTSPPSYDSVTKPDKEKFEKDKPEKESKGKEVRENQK

Turning to `N#Cc1cccc(OC2CCCN(C(=O)c3ccc(S(=O)(=O)Nc4nccs4)cc3)C2)c1` (stereo not shown) [Example 265, 4-{[3-(3-Cyanophenoxy)piperidin-1-yl]carbonyl}-N-1,3-thiazol-2-yl-benzenesulfonamide], the “SCN3A INHIB INACT DRC EP IWQ EMAX” value turned out to be 32.2. In addition, the inhibition at 3 µM (3 μM compound) amounted to 22.6%. The inhibition at 10 µM (10 μM compound) came to 44.3%.

Take `C[C@@H](c1ccccc1)N(C)C(=O)c1ccc(S(=O)(=O)Nc2nccs2)cc1` [Example 256, N-methyl-N-[(1S)-1-phenylethyl]-4-[(1,3-thiazol-2-yl-amino)sulfonyl]benzamide]: the inhibition at 3 µM (3 μM compound) came to 1.49%. The inhibition at 10 µM (10 μM compound) is 6.44%.

Consider `O=C(c1ccc(S(=O)(=O)Nc2nccs2)cc1)N1CCCC[C@@H]1c1ccccn1` [Example 261, 4-{[(2R)-2-pyridin-2-yl-piperidin-1-yl]carbonyl}-N-1,3-thiazol-2-yl-benzenesulfonamide], for which the inhibition at 3 µM (3 μM compound) is 6.02%. The inhibition at 10 µM (10 μM compound) stood at 10.4%.

Turning to `O=C(NCc1ccccc1)c1ccc(S(=O)(=O)Nc2nccs2)cc1` [Example 171, N-benzyl-4-[(1,3-thiazol-2-ylamino)sulfonyl]benzamide], the inhibition at 3 µM (3 μM compound) turned out to be 39.5%. Besides, under “10 μM compound”, the inhibition at 10 µM turned out to be 52.8%.

Consider `O=C(NCc1cccc(Cl)c1)c1ccc(S(=O)(=O)Nc2nccs2)cc1` [Example 152, N-(3-chlorobenzyl)-4-[(1,3-thiazol-2-ylamino)sulfonyl]benzamide], for which the inhibition at 3 µM (3 μM compound) is 42.2%. Further, the inhibition at 10 µM (10 μM compound) came to 56.3%.

For the compound `O=C(c1ccc(S(=O)(=O)Nc2nccs2)cc1)N1CCSCC1c1ccc(F)cc1` (stereo not shown) [Example 223, 4-{[3-(4-Fluorophenyl)thiomorpholin-4-yl]carbonyl}-N-1,3-thiazol-2-yl-benzenesulfonamide], the “SCN3A INHIB INACT DRC EP IWQ EMAX” value is recorded as 46.3. Besides, the inhibition at 3 µM (3 μM compound) is 36.9%. Besides, where the note is “10 μM compound”, the inhibition at 10 µM amounted to 47.5%. Also, the IC50 (read-out: SCN3A IWQ IC-50) came out at 33 µM.

Take `CCOc1ccccc1CNC(=O)c1ccc(S(=O)(=O)Nc2nccs2)cc1` [Example 89, N-(2-ethoxybenzyl)-4-[(1,3-thiazol-2-ylamino)sulfonyl]benzamide]: under “3 μM compound”, the inhibition at 3 µM came out at 14%. Also, the inhibition at 10 µM (10 μM compound) was found to be 48.2%.

For the compound `O=C(NCCc1ccc(F)cc1)c1ccc(S(=O)(=O)Nc2nccs2)cc1` [Example 102, N-[2-(4-fluorophenyl)ethyl]-4-[(1,3-thiazol-2-ylamino)sulfonyl]benzamide], the inhibition at 3 µM (3 μM compound) was 22.4%. Further, where the note is “10 μM compound”, the inhibition at 10 µM was 37.2%.

Regarding `CN(C(=O)c1ccc(S(=O)(=O)Nc2nccs2)cc1)C(Cc1ccccc1)c1ccccc1` (stereo not shown) [Example 251, N-(1,2-diphenylethyl)-N-methyl-4-[(1,3-thiazol-2-ylamino)sulfonyl]benzamide], where the note is “3 μM compound”, the inhibition at 3 µM came out at 19.9%. Further, for the setting “10 μM compound”, the inhibition at 10 µM came out at 0.8%.

`Cc1noc(C(NC(=O)c2ccc(S(=O)(=O)Nc3nccs3)cc2)c2ccccc2)n1` (stereo not shown) [Example 183, N-[(3-methyl-1,2,4-oxadiazol-5-yl)(phenyl)methyl]-4-[(1,3-thiazol-2-ylamino)sulfonyl]benzamide]: the inhibition at 3 µM (3 μM compound) turned out to be 8.9%. The inhibition at 10 µM (10 μM compound) came to 1.34%.

With `O=C(c1ccc(S(=O)(=O)Nc2nccs2)cc1)N1CCCC1c1ccccn1` (stereo not shown) [Example 283, 4-[(2-Pyridin-2-ylpyrrolidin-1-yl)carbonyl]-N-1,3-thiazol-2-ylbenzenesulfonamide], for the setting “3 μM compound”, the inhibition at 3 µM was -1.98%. In addition, the inhibition at 10 µM (10 μM compound) was determined as 0.98%.

Take `O=C(c1ccc(S(=O)(=O)Nc2nccs2)cc1)N1CCCCCC1c1ccccn1` (stereo not shown) [Example 255, 4-[(2-Pyridin-2-ylazepan-1-yl)carbonyl]-N-1,3-thiazol-2-yl-benzenesulfonamide]: the inhibition at 3 µM (3 μM compound) is 4.16%. In addition, the inhibition at 10 µM (10 μM compound) was 6.56%.

With “N-[1-(3-methylbenzyl)cyclopropyl] 4-[(1,3-thiazol-2-ylamino)sulfonyl]benzamide [Example 159]”, the “SCN3A % INHIB HTS IWQ 3 μM” value (3 μM compound) was found to be 28.7%. The “SCN3A % INHIB HTS IWQ 10 μM” value (10 μM compound) was found to be 35.85%.

As to `O=C(NCc1c(F)cccc1Cl)c1ccc(S(=O)(=O)Nc2nccs2)cc1` [Example 86, N-(2-chloro-6-fluorobenzyl)-4-[(1,3-thiazol-2-ylamino)sulfonyl]benzamide], the inhibition at 3 µM (3 μM compound) was found to be 22.3%. In addition, for the setting “10 μM compound”, the inhibition at 10 µM is 26.3%.

Consider `O=C(c1ccc(S(=O)(=O)Nc2nccs2)cc1)N(Cc1ccccc1)[C@@H]1CCCC[C@@H]1CO` [Example 226, N-benzyl-N-[(1R,2S)-2-(hydroxymethyl)cyclohexyl]-4-[(1,3-thiazol-2-ylamino)sulfonyl]benzamide], for which the inhibition at 3 µM (3 μM compound) was -1.52%. The inhibition at 10 µM (10 μM compound) was found to be 13.9%.

For `COc1ccc(CC2COCCN(C(=O)c3ccc(S(=O)(=O)Nc4nccs4)cc3)C2)cc1F` (stereo not shown) [Example 199, 4-{[6-(3-Fluoro-4-methoxybenzyl)-1,4-oxazepan-4-yl]carbonyl}-N-1,3-thiazol-2-yl-benzenesulfonamide], the inhibition at 3 µM (3 μM compound) is 10.2%. For the same compound, the inhibition at 10 µM (10 μM compound) worked out at 7.42%.

For `C[C@@H]([C@H](O)c1ccccc1)N(C)C(=O)c1ccc(S(=O)(=O)Nc2nccs2)cc1` [Example 188, N-[(1S,2R)-2-hydroxy-1-methyl-2-phenylethyl]-N-methyl-4-[(1,3-thiazol-2-ylamino)sulfonyl]benzamide], where the note is “3 μM compound”, the inhibition at 3 µM was 14.5%. Besides, the inhibition at 10 µM (10 μM compound) was 1.03%.

Take `COCCCOC1CCCN(C(=O)c2ccc(S(=O)(=O)Nc3nccs3)cc2)C1` (stereo not shown) [Example 260, 4-{[3-(3-Methoxypropoxy)piperidin-1-yl]carbonyl}-N-1,3-thiazol-2-yl-benzenesulfonamide]: the inhibition at 3 µM (3 μM compound) is -3.05%. Also, the inhibition at 10 µM (10 μM compound) worked out at 10.5%.

As to `O=C(c1ccc(S(=O)(=O)Nc2nccs2)cc1)N1CCOCC(O)(Cc2ccccc2)C1` (stereo not shown) [Example 258, 4-[(6-Benzyl-6-hydroxy-1,4-oxazepan-4-yl)carbonyl]-N-1,3-thiazol-2-yl-benzenesulfonamide], the inhibition at 3 µM (3 μM compound) was found to be 0.17%. Moreover, the inhibition at 10 µM (10 μM compound) was 12%.

Consider `COc1ccc(OC2CCCN(C(=O)c3ccc(S(=O)(=O)Nc4nccs4)cc3)C2)cc1` (stereo not shown) [Example 203, 4-{[3-(4-Methoxyphenoxy)piperidin-1-yl]carbonyl}-N-1,3-thiazol-2-yl-benzenesulfonamide], for which, under “3 μM compound”, the inhibition at 3 µM amounted to 13.1%. Also, the inhibition at 10 µM (10 μM compound) is 17.7%.

With `CN(CC(O)c1ccccc1)C(=O)c1ccc(S(=O)(=O)Nc2nccs2)cc1` (stereo not shown) [Example 250, N-(2-hydroxy-2-phenylethyl)-N-methyl-4-[(1,3-thiazol-2-yl-amino)sulfonyl]benzamide], the inhibition at 3 µM (3 μM compound) was -4.32%. Further, the inhibition at 10 µM (10 μM compound) came out at 0.12%.

`O=C(c1ccc(S(=O)(=O)Nc2nccs2)cc1)N(Cc1ccccc1)[C@@H](CO)c1ccccc1` [Example 208, N-benzyl-N-[(1R)-2-hydroxy-1-phenylethyl]-4-[(1,3-thiazol-2-yl-amino)sulfonyl]benzamide]: under “3 μM compound”, the inhibition at 3 µM came to 3.57%. Where the note is “10 μM compound”, the inhibition at 10 µM is -14.2%.

With `Cc1ncccc1OCC1CN(C(=O)c2ccc(S(=O)(=O)Nc3nccs3)cc2)CCO1` (stereo not shown) [Example 243, 4-[(2-{[(2-Methylpyridin-3-yl)oxy]methyl}morpholin-4-yl)carbonyl]-N-1,3-thiazol-2-yl-benzenesulfonamide], for the setting “3 μM compound”, the inhibition at 3 µM came out at 15.3%. Also, the inhibition at 10 µM (10 μM compound) turned out to be 14.7%.

For `CC(CNC(=O)c1ccc(S(=O)(=O)Nc2nccs2)cc1)Oc1ccccc1` (stereo not shown) [Example 161, N-(2-phenoxypropyl)-4-[(1,3-thiazol-2-ylamino)sulfonyl]benzamide], the inhibition at 3 µM (3 μM compound) came out at 30.3%. Also, where the note is “10 μM compound”, the inhibition at 10 µM amounted to 32.4%.

For `O=C(NC(CO)c1ccccc1)c1ccc(S(=O)(=O)Nc2nccs2)cc1` (stereo not shown) [Example 57, N-(2-hydroxy-1-phenylethyl)-4-[(1,3-thiazol-2-ylamino)sulfonyl]benzamide], the inhibition at 3 µM (3 μM compound) was determined as 25.2%. Also, for the setting “10 μM compound”, the inhibition at 10 µM turned out to be 47.8%.

With `CCN(C(=O)c1ccc(S(=O)(=O)Nc2nccs2)cc1)C(C)C(=O)c1ccccc1` (stereo not shown) [Example 209, N-ethyl-N-(1-methyl-2-oxo-2-phenylethyl)-4-[(1,3-thiazol-2-yl-amino)sulfonyl]benzamide], under “3 μM compound”, the inhibition at 3 µM is 5.72%. For the same compound, the inhibition at 10 µM (10 μM compound) is -5.23%.

For `O=C(NCc1c(F)cccc1C(F)(F)F)c1ccc(S(=O)(=O)Nc2nccs2)cc1` [Example 84, N-[2-fluoro-6-(trifluoromethyl)benzyl]-4-[(1,3-thiazol-2-ylamino)sulfonyl]benzamide], the inhibition at 3 µM (3 μM compound) was found to be 17.7%. For the same compound, the inhibition at 10 µM (10 μM compound) turned out to be 22.2%.

With `O=C(NCC1(c2ccccc2)CCCC1)c1ccc(S(=O)(=O)Nc2nccs2)cc1` [Example 121, N-[(1-phenylcyclopentyl)methyl]-4-[(1,3-thiazol-2-ylamino)sulfonyl]benzamide], under “3 μM compound”, the inhibition at 3 µM is 31.1%. Moreover, the inhibition at 10 µM (10 μM compound) came out at 30.2%.

`O=C(c1ccc(S(=O)(=O)Nc2nccs2)cc1)N1CCCCC1COc1ccccc1` (stereo not shown) [Example 224, 4-{[2-(Phenoxymethyl)piperidin-1-yl]carbonyl}-N-1,3-thiazol-2-yl-benzenesulfonamide]: the inhibition at 3 µM (3 μM compound) turned out to be 3.47%. The inhibition at 10 µM (10 μM compound) worked out at 9.34%.
